Data as given in EP0369733A2, “Fluorescent indicator dyes for alkali metal cations, their preparation and use” (THE REGENTS OF THE UNIVERSITY OF CALIFORNIA, priority 1988, dated 1990).
Where “and” joins values, the source holds several entries; their conditions need not be identical. Equal values may be shown once.

Tests used:
[1] = Cation titration followed by absorbance or fluorescence excitation spectra: Mg²⁺ binding; details: read-out: Dissociation constants (Kd) in mM for Mg²⁺
Protocol: (§1) • Footnote a: For molecular structures, see Fig. 1. • Footnote b: Except where otherwise noted, these dissociation constants were measured with the chelator dissolved in 0.1 M tetramethylammonium chloride, at a pH held high enough with 1-5 mM tris(hydroxymethyl)aminomethane for protonation to be insignificant. The absorbance spectrum, or the fluorescence excitation spectrum for those compounds (2GG, 2NN, 2OO, 2PP, 3NN) with acronyms was measured as a function of the concentration of cation added as a solid or concentrated aqueous solution of the halide salt. No correction has been made for the changing ionic strength of the solution, which started from 0.1 M and increased, but the absorbances and fluorescence amplitudes were applied for dilution of the dye and any slight quenching due to high concentrations of Cl⁻. • Footnote c: These protonation constants were determined in 0.1 M tetramethylammonium chloride, 10 mM tris(hydroxymethyl)aminomethane, titrated with 5 M H₃PO₄ to successively lower pH values measured with a Radiometer PHM84 meter. […] The first number is the wavelength in nanometers, followed in parentheses by 10⁻³ x the corresponding extinction coefficient, M⁻¹cm⁻¹. […] Emission maxima are not corrected for the spectral sensitivity of the emission detection. Quantum efficiencies were measured (13) by comparing the integral of the corrected emission spectrum with the corresponding integral for a solution of quinine bisulfate in 1 N H₂SO₄ of matched absorbance at the excitation wavelength.
(§2) Affinities for other cations were usually measured by titrating aqueous solutions of the indicator with metal chlorides added either as solid or from concentrated stock solutions, taking care to minimize dilution and correct for it. A convenient way to mass-produce premeasured micromole to millimole aliquots of solid NaCl or KCl was to pipet saline solutions into polypropylene micro test tubes and evaporate the water in an oven. The standard ionic background was again 100 mM tetramethylammonium chloride, usually with a few mM of tris(hydroxymethyl)-aminomethane base to hold the pH high enough (pH 8-9) to insure that protonation was negligible. This convenient titration procedure had the slight disadvantage that the ionic strength was not constant, especially when large quantities of a salt had to be added due to weak affinities. […] When constant ionic strength was desired, the chelator was made up at identical concentrations in matched solutions of NaCl, KCl, or tetramethylammonium chloride, then these stocks were mixed in the desired proportions.

[2] = Proton dissociation constants in 0.1 M tetramethylammonium chloride; details: second value (second protonation), 10 mM Tris titrated with 5 M H₃PO₄
Protocol: (§4) • Footnote a: For molecular structures, see Fig. 1. • Footnote b: Except where otherwise noted, these dissociation constants were measured with the chelator dissolved in 0.1 M tetramethylammonium chloride, at a pH held high enough with 1-5 mM tris(hydroxymethyl)aminomethane for protonation to be insignificant. […] No correction has been made for the changing ionic strength of the solution, which started from 0.1 M and increased, but the absorbances and fluorescence amplitudes were applied for dilution of the dye and any slight quenching due to high concentrations of Cl⁻. • Footnote c: These protonation constants were determined in 0.1 M tetramethylammonium chloride, 10 mM tris(hydroxymethyl)aminomethane, titrated with 5 M H₃PO₄ to successively lower pH values measured with a Radiometer PHM84 meter.
(§5) Proton dissociation constants of the chelators were measured by spectrophotometry or spectrofluorometry of buffered solutions, containing either 100 mM tetramethylammonium chloride as inert supporting electrolyte, or 121.5 mM K⁺, 13.5 mM Na⁺, and 1 mM Mg²⁺ to simulate the cation environment of vertebrate cytoplasm (14). Traces of UV-absorbing impurities in the tetramethylammonium chloride (Alfa Inorganics) were removed by filtration through acid-­washed activated charcoal. The concentration of the tetramethylammonium chloride was then measured by chloride titration, and the absence of significant Na⁺ contamination was verified with a sodium-selective glass electrode (Microelectrodes Inc.). When the chelators contained two protonatable nitrogens, the curve of absorbance or fluorescence versus pH was analyzed by computerized least-squares fitting to the equations for two arbitrary proton equilibria (15), with the added assumption that the two protonations each caused the same change in extinction coefficient or fluorescence.

[3] = Cation titration followed by absorbance or fluorescence excitation spectra: Ca²⁺ binding; details: 0.1 M tetramethylammonium chloride, 1-5 mM tris(hydroxymethyl)aminomethane, high pH; read-out: Dissociation constants (Kd) in mM for Ca²⁺
Protocol: as §1
as §2, with “proportions. All measurements were made at room temperature (22°, ±2° C).” for “proportions.”

[4] = Cation titration followed by absorbance or fluorescence excitation spectra: Li⁺ binding; details: for Kd: 0.1 M tetramethylammonium chloride, 1-5 mM tris(hydroxymethyl)aminomethane, high pH, read-out: Dissociation constants (Kd) in mM for Li⁺
Protocol: as §1
as §2, with “proportions. All measurements were made at room temperature (22°, ±2° C).” for “proportions.”

[5] = UV absorbance spectra without and with saturating cation; assay type: physicochemical; details: for Absorbance maxima -Na⁺ (wavelength): 100 mM tetramethylammonium chloride plus 1-5 mM Tris; for Absorbance maxima -Na⁺ (wavelength) / Absorbance maxima -Na⁺ (extinction coefficient): no Na⁺; for Absorbance maxima +Na⁺ (wavelength): enough NaCl added (0.2-1 M) to saturate the Na⁺ binding; for Absorbance maxima -Na⁺ (extinction coefficient) / Absorbance maxima +Na⁺ (extinction coefficient): number is 10⁻³ x the extinction coefficient; for Absorbance maxima -Na⁺ (extinction coefficient): lower limits for most compounds; for Absorbance maxima +Na⁺ (extinction coefficient): lower limits, saturating NaCl (0.2-1 M)
Protocol: as §1
(§3) UV absorbance spectra were recorded initially on a Cary 210 and later on a Perkin-Elmer Lambda Array 3840 spectrophotometer. Fluorescence excitation and emission spectra and quantum efficiencies were measured on a Spex Fluorolog 111 as described previously (13).

physchem = details: 0.1 m tetramethylammonium chloride
Protocol: as §4, §5

[6] = Cation titration followed by absorbance or fluorescence excitation spectra: Na⁺ binding; details: for Kd: read-out: Dissociation constants (Kd) in mM for Na⁺
Protocol: as §1
as §2, with “proportions. All measurements were made at room temperature (22°, ±2° C).” for “proportions.”

[7] = Fluorescence excitation/emission spectra and quantum efficiency; assay type: physicochemical; details: for Emission maxima -Na⁺: 100 mM tetramethylammonium chloride; for Emission maxima -Na⁺ / Quantum efficiency -Na⁺: no Na⁺; for Emission maxima -Na⁺ / Emission maxima +Na⁺: not corrected for detector sensitivity; for Emission maxima +Na⁺: saturating NaCl; for Quantum efficiency -Na⁺ / Quantum efficiency +Na⁺: relative to quinine bisulfate in 1 N H₂SO₄ (0.55); for Quantum efficiency +Na⁺: saturating Na⁺; for fluorescence quantum yield: ±Na⁺ not specified
Protocol: as §1, §3

[8] = 0.1 M tetramethylammonium chloride, 1-5 mM tris(hydroxymethyl)aminomethane, pH high enough for protonation to be insignificant, 22°
[9] = footnote h: 3.0 M ionic strength (3.0 M NaCl mixed with 3.0 M tetramethylammonium chloride)
[10] = 0.1 M tetramethylammonium chloride, 1-5 mM tris(hydroxymethyl)aminomethane, high pH
[11] = association constant, inert background cation (tetramethylammonium)

| pKa [2] | Kd [3] | Kd [4] | Absorbance maxima -Na⁺ (wavelength) [5] | Absorbance maxima +Na⁺ (wavelength) [5] | pKa (physchem) | Kd [6, 8] | Kd [6, 9] | Absorbance maxima -Na⁺ (extinction coefficient) [5] | Absorbance maxima +Na⁺ (extinction coefficient) [5] | Emission maxima -Na⁺ [7] | Emission maxima +Na⁺ [7] | Quantum efficiency -Na⁺ [7] | Quantum efficiency +Na⁺ [7] | Na⁺ affinity [6, 11] | SMILES | also measured |
| --- | --- | --- | --- | --- | --- | --- | --- | --- | --- | --- | --- | --- | --- | --- | --- | --- |
| 5.43 | 0.075 mM | 2.8 mM | 346 nanometers and 250 nanometers | 304 nanometers and 230 nanometers | 6.85 | 5.3 mM | 2.4 mM | – | – | – | – | – | – | – | CC(=O)Nc1ccc(N2CCOCCOCCN(c3ccc(NC(C)=O)c4cccnc34)CCOCC2)c2ncccc12 [Compound 2CC, N,N-bis-(5-acetamido-8-quinolinyl)-diaza[15]-crown-5] | Kd ([1]; footnote i: free [Mg²⁺] controlled by Mg²⁺-nitrilotriacetate buffers at pH 8.5): 0.078 mM; affinity for Li⁺ (in words) ([4]; compared with its Na⁺ affinity): comparable to that for Na⁺; Na⁺ affinity ([6]; depending on ionic strength): 190 to 415 M⁻¹ |
| – | – | – | 363 nanometers | 362 nanometers | – | 8.9 mM | – | 2400 M⁻¹ cm⁻¹ | 2300 M⁻¹ cm⁻¹ | 497 nanometers | 466 nanometers | – | – | – | Cc1ccc2cc(O)cc(N3CCOCCOCCN(c4cc(O)cc5ccc(C)nc45)CCOCC3)c2n1 [Compound 2FF, N,N-bis-(6-hydroxy-2-methyl-8-quinolinyl)-diaza[15]-crown-5] | – |
| 5.62 | – | – | – | – | 7.55 | 9.4 mM | 4.4 mM | – | – | 525 nanometers | 510 nanometers | .01 | .01 | – | CC(=O)Nc1ccc(N2CCOCCOCCN(c3ccc(NC(C)=O)c4ccc(C)nc34)CCOCC2)c2nc(C)ccc12 [Compound 2DD, N,N-bis-(5-acetamido-2-methyl-8-quinolinyl)-diaza[15]-crown-5] | Absorbance maxima -Na⁺ (wavelength) ([5]; listed as 2DO): 344 nanometers and 256 nanometers; Absorbance maxima +Na⁺ (wavelength) ([5]; listed as 2DO): 306 nanometers and 237 nanometers; fluorescence quantum yield [7]: 0.01; Na⁺ affinity relative to 2CC ([6]; fraction of the affinity of 2CC retained): more than half |
| 5.0 | > 100 mM | 72 mM | 261 nanometers | 280 nanometers and 249 nanometers | 6.31 | 12 mM | – | 10800 M⁻¹ cm⁻¹ | 5400 M⁻¹ cm⁻¹ and 10700 M⁻¹ cm⁻¹ | – | – | – | – | – | COc1cc(NC(C)=O)ccc1N1CCOCCOCCN(c2ccc(NC(C)=O)cc2OC)CCOCC1 [Compound 2JJ, N,N-bis-(4-acetamido-2-methoxyphenyl)-diaza[15]-crown-5] | Kd [1, 10]: > 100 mM; Na⁺ affinity ([6]; at I = 0.15): 83 M⁻¹ |

Continued, compound first:

| SMILES | pKa [2] | Kd [3] | Kd [4] | Absorbance maxima -Na⁺ (wavelength) [5] | Absorbance maxima +Na⁺ (wavelength) [5] | pKa (physchem) | Kd [6, 8] | Kd [6, 9] | Absorbance maxima -Na⁺ (extinction coefficient) [5] | Absorbance maxima +Na⁺ (extinction coefficient) [5] | Emission maxima -Na⁺ [7] | Emission maxima +Na⁺ [7] | Quantum efficiency -Na⁺ [7] | Quantum efficiency +Na⁺ [7] | Na⁺ affinity [6, 11] | also measured |
| --- | --- | --- | --- | --- | --- | --- | --- | --- | --- | --- | --- | --- | --- | --- | --- | --- |
| O=C(O)CCC(=O)Nc1ccc(N2CCOCCOCCN(c3ccc(NC(=O)CCC(=O)O)c4cc5ccccc5nc34)CCOCC2)c2nc3ccccc3cc12 [Compound 2II, N,N-bis-(1-succinamidoacridin-4-yl)-diaza[15]-crown-5] | 6.86 | – | 11.5 mM | 414 nanometers and 359 nanometers and 244 nanometers | 360 nanometers and 251 nanometers | 8.19 | 0.32 mM | 0.4 mM | – | – | 480 nanometers | 625 nanometers | <.001 | <.001 | 3125 M⁻¹ | fluorescence quantum yield [7]: very poor; Na⁺:K⁺ selectivity ([6]; ratio of Na⁺ to K⁺ affinity): > 500 |
| Nc1ccc(N2CCOCCOCCOCCOCC2)c(C(=O)O)c1 [Compound 1B, N-(4-amino-2-carboxyphenyl)-aza[15]-crown-5] | – | – | – | 295 nanometers | 296 nanometers | 9.21 | 71 mM | – | 1100 M⁻¹ cm⁻¹ | 1100 M⁻¹ cm⁻¹ | – | – | – | – | 14 M⁻¹ | – |
| CC(=O)Nc1ccc(N2CCOCCOCCOCCOCC2)c2ncccc12 [Compound 1C, N-(5-acetamido-8-quinolinyl)-aza[15]-crown-5] | – | 10 mM | 63 mM | 349 nanometers and 252 nanometers | 304 nanometers and 229 nanometers | < 7 | 67 mM | – | – | – | – | – | – | – | 15 M⁻¹ | Kd [1, 10]: 12 mM |
| Cc1ccc2c(n1)c(N1CCOCCOCCN(c3cc4oc(-c5ccc(C(=O)O)c(C(=O)O)c5)cc4c4ccc(C)nc34)CCOCC1)cc1oc(-c3ccc(C(=O)O)c(C(=O)O)c3)cc12 [Compound 2GG, N,N-bis(2-(3,4-dicarboxyphenyl)-7-methylfuro [3,2-f]quinolin-5-yl)-diaza[15]-crown-5] | 6.8 | – | – | – | – | 7.9 | 4.7 mM | – | – | – | 486 nanometers | 525 nanometers | .005 | .01 | – | Absorbance maxima -Na⁺ (wavelength) ([5]; listed as 2GG (SQFP)): 373 nanometers and 308 nanometers; Absorbance maxima +Na⁺ (wavelength) ([5]; listed as 2GG (SQFP)): 362 nanometers and 307 nanometers; Absorbance maxima -Na⁺ (extinction coefficient) ([5]; listed as 2GG (SQFP)): 24000 M⁻¹ cm⁻¹ and 22000 M⁻¹ cm⁻¹; Absorbance maxima +Na⁺ (extinction coefficient) ([5]; listed as 2GG (SQFP)): 31000 M⁻¹ cm⁻¹ and 28000 M⁻¹ cm⁻¹ |
| COc1ccc(OC)c(N2CCOCCOCCN(c3cc(OC)ccc3OC)CCOCC2)c1 [Compound 2LL, N,N-bis-(2,5-dimethoxyphenyl)-diaza[15]-crown-5] | – | – | – | 295 nanometers and 213 nanometers | 291 nanometers | – | 10 to 20 mM | – | – | 4000 M⁻¹ cm⁻¹ | – | – | – | – | – | – |
